What was measured:
[1] = biological target: Tyrosine-protein kinase SYK (Homo sapiens) (UniProt P43405); assay: Inhibition of SYK (unknown origin) at 1 uM
[2] = biological target: High affinity nerve growth factor receptor (Homo sapiens) (UniProt P04629); assay: Inhibition of TRKA (unknown origin) at 1 uM
[3] = biological target: Homeodomain-interacting protein kinase 3 (Homo sapiens) (UniProt Q9H422); assay: Inhibition of HIPK3 (unknown origin) at 1 uM
[4] = biological target: Dual specificity mitogen-activated protein kinase kinase 2 (Homo sapiens) (UniProt P36507); assay: Inhibition of MEK2 (unknown origin) at 1 uM
[5] = biological target: Serine/threonine-protein kinase Nek1 (Homo sapiens) (UniProt Q96PY6); assay: Inhibition of NEK1 (unknown origin) at 1 uM
[6] = biological target: Proto-oncogene tyrosine-protein kinase Src (Homo sapiens) (UniProt P12931); assay: Inhibition of c-SRC (unknown origin) at 1 uM
[7] = biological target: Tyrosine-protein kinase Fer (Homo sapiens) (UniProt P16591); assay: Inhibition of FER (unknown origin) at 1 uM
[8] = biological target: CDK6/cyclin D1 (Homo sapiens) (UniProt P24385+Q00534); assay: Inhibition of CDK6/Cyclin D1 (unknown origin) at 1 uM; format: protein-complex assay
[9] = biological target: Tyrosine-protein kinase Yes (Homo sapiens) (UniProt P07947); assay: Inhibition of YES (unknown origin) at 1 uM
[10] = biological target: Dual specificity mitogen-activated protein kinase kinase 1 (Homo sapiens) (UniProt Q02750); assay: Inhibition of MEK1 (unknown origin) at 1 uM
[11] = biological target: Aurora kinase B (Homo sapiens) (UniProt Q96GD4); assay: Inhibition of aurora B (unknown origin) at 1 uM
[12] = biological target: NT-3 growth factor receptor (Homo sapiens) (UniProt Q16288); assay: Inhibition of TRKC (unknown origin) at 1 uM
[13] = biological target: Fibroblast growth factor receptor 2 (Homo sapiens) (UniProt P21802); assay: Inhibition of FGFR2 (unknown origin) at 1 uM
[14] = biological target: Aurora kinase A (Homo sapiens) (UniProt O14965); assay: Inhibition of aurora A (unknown origin) at 1 uM
[15] = biological target: Vascular endothelial growth factor receptor 1 (Homo sapiens) (UniProt P17948); assay: Inhibition of VEGFR1 (unknown origin) at 1 uM
[16] = biological target: Proto-oncogene tyrosine-protein kinase ROS (Homo sapiens) (UniProt P08922); assay: Inhibition of ROS (unknown origin) at 1 uM
[17] = biological target: Ribosomal protein S6 kinase beta-1 (Homo sapiens) (UniProt P23443); assay: Inhibition of p70S6K (unknown origin) at 1 uM
[18] = biological target: Tyrosine-protein kinase JAK3 (Homo sapiens) (UniProt P52333); assay: Inhibition of JAK3 (unknown origin) at 1 uM
[19] = biological target: Proto-oncogene tyrosine-protein kinase receptor Ret (Homo sapiens) (UniProt P07949); assay: Inhibition of RET (unknown origin) at 1 uM
[20] = biological target: Fibroblast growth factor receptor 1 (Homo sapiens) (UniProt P11362); assay: Inhibition of FGFR1 (unknown origin) at 1 uM
[21] = biological target: T1, TRAF2 and NCK-interacting protein kinase (Homo sapiens, UniProt Q9UKE5); assay: Ratio of IC50 for TNIK-mediated TCF4/[…] transcription in human HCT116 cells to IC50 for TNIK (unknown origin); format: cell-based; settings: HCT-116
Target sequence in this assay (Q9UKE5 whole entry, looked up): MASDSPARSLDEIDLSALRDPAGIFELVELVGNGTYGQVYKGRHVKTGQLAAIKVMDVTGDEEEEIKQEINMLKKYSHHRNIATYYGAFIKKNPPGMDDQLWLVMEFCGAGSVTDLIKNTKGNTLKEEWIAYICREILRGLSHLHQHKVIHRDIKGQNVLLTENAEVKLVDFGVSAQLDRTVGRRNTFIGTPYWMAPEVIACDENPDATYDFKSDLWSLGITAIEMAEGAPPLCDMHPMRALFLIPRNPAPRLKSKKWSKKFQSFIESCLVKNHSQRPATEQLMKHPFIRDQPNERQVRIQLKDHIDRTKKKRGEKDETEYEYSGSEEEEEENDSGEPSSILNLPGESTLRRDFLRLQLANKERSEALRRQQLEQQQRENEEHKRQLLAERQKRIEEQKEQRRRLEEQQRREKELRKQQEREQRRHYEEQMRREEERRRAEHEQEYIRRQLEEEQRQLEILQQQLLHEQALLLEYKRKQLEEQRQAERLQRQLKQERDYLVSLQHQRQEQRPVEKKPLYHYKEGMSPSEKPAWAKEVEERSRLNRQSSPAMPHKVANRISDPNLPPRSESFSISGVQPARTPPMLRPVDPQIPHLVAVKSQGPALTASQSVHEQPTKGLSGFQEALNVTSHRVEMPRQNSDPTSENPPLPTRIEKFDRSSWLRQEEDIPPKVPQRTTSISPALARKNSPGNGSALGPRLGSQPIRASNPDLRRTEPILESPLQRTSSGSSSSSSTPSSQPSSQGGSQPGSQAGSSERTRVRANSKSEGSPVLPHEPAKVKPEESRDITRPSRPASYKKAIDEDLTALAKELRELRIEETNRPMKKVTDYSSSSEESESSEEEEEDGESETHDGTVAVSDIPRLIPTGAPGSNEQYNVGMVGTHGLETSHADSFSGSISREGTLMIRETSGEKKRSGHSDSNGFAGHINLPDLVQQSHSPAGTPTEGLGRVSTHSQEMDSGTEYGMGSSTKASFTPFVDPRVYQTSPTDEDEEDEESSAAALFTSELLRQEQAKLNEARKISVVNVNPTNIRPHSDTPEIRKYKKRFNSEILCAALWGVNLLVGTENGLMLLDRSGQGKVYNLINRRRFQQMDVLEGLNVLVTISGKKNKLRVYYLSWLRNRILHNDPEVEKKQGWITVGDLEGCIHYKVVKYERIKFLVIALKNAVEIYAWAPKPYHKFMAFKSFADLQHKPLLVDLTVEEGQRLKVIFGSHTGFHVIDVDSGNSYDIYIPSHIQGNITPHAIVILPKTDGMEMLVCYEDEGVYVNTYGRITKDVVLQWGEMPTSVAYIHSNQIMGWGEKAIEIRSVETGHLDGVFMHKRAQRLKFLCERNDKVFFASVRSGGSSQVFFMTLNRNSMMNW

[22] = biological target: Cyclin-dependent kinase 1/cyclin B1 (Homo sapiens) (UniProt P06493+P14635); assay: Inhibition of CDK1/cyclin B (unknown origin) at 1 uM; format: protein-complex assay
[23] = biological target: Tyrosine-protein kinase HCK (Homo sapiens) (UniProt P08631); assay: Inhibition of HCK (unknown origin) at 1 uM
[24] = biological target: Protein kinase C theta type (Homo sapiens) (UniProt Q04759); assay: Inhibition of PKCtheta (unknown origin) at 1 uM
[25] = biological target: Serine/threonine-protein kinase 26 (Homo sapiens) (UniProt Q9P289); assay: Inhibition of MST4 (unknown origin) at 1 uM
[26] = biological target: Homeodomain-interacting protein kinase 1 (Homo sapiens) (UniProt Q86Z02); assay: Inhibition of HIPK1 (unknown origin) at 1 uM
[27] = biological target: Ephrin type-A receptor 7 (Homo sapiens) (UniProt Q15375); assay: Inhibition of EPHA7 (unknown origin) at 1 uM
[28] = biological target: Protein kinase C delta type (Homo sapiens) (UniProt Q05655); assay: Inhibition of PKCdelta (unknown origin) at 1 uM
[29] = biological target: Protein-tyrosine kinase 2-beta (Homo sapiens) (UniProt Q14289); assay: Inhibition of PYK2 (unknown origin) at 1 uM
[30] = biological target: Tyrosine-protein kinase Fyn (Homo sapiens) (UniProt P06241); assay: Inhibition of FYN (unknown origin) at 1 uM
[31] = biological target: CDK9/cyclin T1 (Homo sapiens) (UniProt O60563+P50750); assay: Inhibition of CDK9/cyclin T1 (unknown origin) at 1 uM; format: protein-complex assay
[32] = biological target: Mast/stem cell growth factor receptor Kit (Homo sapiens) (UniProt P10721); assay: Inhibition of c-KIT (unknown origin) at 1 uM
[33] = biological target: Death-associated protein kinase 1 (Homo sapiens) (UniProt P53355); assay: Inhibition of DAPK1 (unknown origin) at 1 uM
[34] = biological target: Aurora kinase C (Homo sapiens) (UniProt Q9UQB9); assay: Inhibition of aurora C (unknown origin) at 1 uM
[35] = biological target: Muscle, skeletal receptor tyrosine-protein kinase (Homo sapiens) (UniProt O15146); assay: Inhibition of MUSK (unknown origin) at 1 uM
[36] = biological target: Tyrosine-protein kinase Fes/Fps (Homo sapiens) (UniProt P07332); assay: Inhibition of FES (unknown origin) at 1 uM
[37] = biological target: Insulin-like growth factor 1 receptor (Homo sapiens) (UniProt P08069); assay: Inhibition of IGF1R (unknown origin) at 1 uM
[38] = biological target: Platelet-derived growth factor receptor alpha (Homo sapiens) (UniProt P16234); assay: Inhibition of PDGFRalpha (unknown origin) at 1 uM
[39] = biological target: Tyrosine-protein kinase receptor UFO (Homo sapiens) (UniProt P30530); assay: Inhibition of AXL (unknown origin) at 1 uM
[40] = Apparent permeability across basolateral to apical side in human Caco2 cells; format: ADME, cell-based; settings: Caco-2
[41] = Apparent permeability across apical to basolateral side in human Caco2 cells; format: ADME, cell-based; settings: Caco-2
[42] = biological target: Cyclin-dependent kinase 4/cyclin D1 (Homo sapiens) (UniProt P11802+P24385); assay: Inhibition of CDK4/cyclin D1 (unknown origin) at 1 uM; format: protein-complex assay
[43] = biological target: T1, TRAF2 and NCK-interacting protein kinase; assay: Inhibition of TNIK-mediated TCF4/[…] transcription in human HCT116 cells by beta-lactamase reporter gene assay; format: cell-based, HCT-116
Target sequence in this assay (Q9UKE5 whole entry): as the sequence (Q9UKE5 whole entry, looked up) above

[44] = biological target: T1, TRAF2 and NCK-interacting protein kinase; assay: Inhibition of TNIK (unknown origin) by ADP glo luminescent assay
Target sequence in this assay (Q9UKE5 whole entry): as the sequence (Q9UKE5 whole entry, looked up) above

[45] = biological target: Protein kinase C epsilon (Homo sapiens) (UniProt Q02156); assay: Inhibition of PKCepsilon (unknown origin) at 1 uM

NT-3 growth factor receptor (Homo sapiens), sequence (Q16288 32-839 limits assumed): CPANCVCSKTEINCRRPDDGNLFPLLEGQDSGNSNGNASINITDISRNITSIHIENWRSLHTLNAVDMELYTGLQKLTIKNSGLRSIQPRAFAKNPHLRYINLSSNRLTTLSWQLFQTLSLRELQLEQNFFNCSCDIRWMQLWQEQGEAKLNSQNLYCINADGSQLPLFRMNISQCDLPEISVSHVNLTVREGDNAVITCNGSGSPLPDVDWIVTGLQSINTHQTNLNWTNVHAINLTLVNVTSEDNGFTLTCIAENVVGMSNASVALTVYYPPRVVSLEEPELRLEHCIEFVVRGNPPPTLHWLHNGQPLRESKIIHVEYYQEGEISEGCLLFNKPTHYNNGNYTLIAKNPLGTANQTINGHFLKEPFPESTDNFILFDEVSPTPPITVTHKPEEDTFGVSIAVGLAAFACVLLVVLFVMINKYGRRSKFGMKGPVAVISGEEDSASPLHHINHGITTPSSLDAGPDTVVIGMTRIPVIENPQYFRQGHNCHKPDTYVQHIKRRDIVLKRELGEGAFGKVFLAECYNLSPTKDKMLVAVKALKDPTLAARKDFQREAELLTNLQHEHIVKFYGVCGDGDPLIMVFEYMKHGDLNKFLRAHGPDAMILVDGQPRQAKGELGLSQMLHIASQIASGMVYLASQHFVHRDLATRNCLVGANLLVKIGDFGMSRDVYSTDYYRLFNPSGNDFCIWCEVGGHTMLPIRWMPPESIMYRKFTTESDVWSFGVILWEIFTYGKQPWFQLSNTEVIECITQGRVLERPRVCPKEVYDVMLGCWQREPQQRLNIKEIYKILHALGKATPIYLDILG
Proto-oncogene tyrosine-protein kinase ROS (Homo sapiens), sequence (P08922 whole entry): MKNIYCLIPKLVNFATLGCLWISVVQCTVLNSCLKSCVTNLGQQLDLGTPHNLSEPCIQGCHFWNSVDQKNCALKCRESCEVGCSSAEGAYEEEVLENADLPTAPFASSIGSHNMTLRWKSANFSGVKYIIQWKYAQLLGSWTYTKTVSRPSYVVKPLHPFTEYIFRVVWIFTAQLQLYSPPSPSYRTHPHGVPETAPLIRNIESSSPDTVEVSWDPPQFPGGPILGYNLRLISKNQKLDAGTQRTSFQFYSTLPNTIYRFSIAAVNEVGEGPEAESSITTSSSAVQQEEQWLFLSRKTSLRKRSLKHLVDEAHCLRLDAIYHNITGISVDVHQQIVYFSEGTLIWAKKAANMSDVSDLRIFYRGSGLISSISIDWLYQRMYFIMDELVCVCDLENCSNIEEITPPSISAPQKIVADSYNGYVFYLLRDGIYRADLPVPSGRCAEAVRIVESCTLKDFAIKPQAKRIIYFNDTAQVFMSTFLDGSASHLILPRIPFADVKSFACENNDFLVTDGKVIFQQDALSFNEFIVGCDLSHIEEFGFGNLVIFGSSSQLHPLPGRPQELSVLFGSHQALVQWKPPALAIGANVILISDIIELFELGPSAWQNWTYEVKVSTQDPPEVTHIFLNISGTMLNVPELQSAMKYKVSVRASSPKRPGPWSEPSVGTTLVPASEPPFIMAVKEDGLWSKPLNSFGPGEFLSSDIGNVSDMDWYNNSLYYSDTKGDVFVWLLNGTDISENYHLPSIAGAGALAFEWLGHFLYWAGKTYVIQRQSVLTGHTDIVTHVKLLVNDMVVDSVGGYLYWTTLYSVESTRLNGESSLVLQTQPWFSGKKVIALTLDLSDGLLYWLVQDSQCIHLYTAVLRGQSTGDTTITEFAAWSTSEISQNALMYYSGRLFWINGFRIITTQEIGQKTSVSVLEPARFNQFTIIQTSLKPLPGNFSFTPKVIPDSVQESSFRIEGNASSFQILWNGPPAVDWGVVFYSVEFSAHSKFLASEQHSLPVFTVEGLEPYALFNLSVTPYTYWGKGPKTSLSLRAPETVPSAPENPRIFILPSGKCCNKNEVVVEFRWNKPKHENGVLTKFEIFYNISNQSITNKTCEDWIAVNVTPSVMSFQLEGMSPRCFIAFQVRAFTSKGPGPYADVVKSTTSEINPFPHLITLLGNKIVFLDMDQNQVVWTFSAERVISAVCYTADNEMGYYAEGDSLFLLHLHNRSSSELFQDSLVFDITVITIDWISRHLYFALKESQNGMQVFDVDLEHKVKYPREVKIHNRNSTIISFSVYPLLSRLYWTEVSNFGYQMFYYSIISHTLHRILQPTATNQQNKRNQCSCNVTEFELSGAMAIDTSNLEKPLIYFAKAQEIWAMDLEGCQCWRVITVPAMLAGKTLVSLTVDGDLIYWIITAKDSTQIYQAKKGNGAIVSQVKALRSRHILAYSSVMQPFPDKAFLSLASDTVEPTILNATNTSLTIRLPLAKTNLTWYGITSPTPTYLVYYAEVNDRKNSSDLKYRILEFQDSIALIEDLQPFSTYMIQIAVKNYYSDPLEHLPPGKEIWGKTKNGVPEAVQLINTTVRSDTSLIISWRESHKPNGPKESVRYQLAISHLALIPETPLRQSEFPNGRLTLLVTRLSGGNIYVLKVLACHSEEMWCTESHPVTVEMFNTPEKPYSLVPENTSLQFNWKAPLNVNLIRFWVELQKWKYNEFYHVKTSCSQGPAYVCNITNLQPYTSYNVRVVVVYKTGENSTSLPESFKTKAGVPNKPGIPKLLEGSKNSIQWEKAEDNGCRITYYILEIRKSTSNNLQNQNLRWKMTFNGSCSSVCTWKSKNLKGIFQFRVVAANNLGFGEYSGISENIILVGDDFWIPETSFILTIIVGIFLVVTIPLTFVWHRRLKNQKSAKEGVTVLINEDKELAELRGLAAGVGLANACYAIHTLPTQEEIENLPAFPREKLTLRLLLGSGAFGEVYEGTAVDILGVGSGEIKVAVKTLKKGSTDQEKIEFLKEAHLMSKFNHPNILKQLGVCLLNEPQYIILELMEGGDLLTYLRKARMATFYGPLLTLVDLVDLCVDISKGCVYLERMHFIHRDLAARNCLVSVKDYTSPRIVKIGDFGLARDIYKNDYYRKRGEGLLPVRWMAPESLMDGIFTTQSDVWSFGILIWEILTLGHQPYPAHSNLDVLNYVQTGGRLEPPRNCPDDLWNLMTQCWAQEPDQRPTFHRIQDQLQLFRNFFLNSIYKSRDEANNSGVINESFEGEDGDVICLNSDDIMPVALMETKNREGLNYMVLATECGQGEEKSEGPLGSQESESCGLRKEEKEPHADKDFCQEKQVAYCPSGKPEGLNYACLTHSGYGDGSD
Aurora kinase B (Homo sapiens), sequence (Q96GD4 whole entry): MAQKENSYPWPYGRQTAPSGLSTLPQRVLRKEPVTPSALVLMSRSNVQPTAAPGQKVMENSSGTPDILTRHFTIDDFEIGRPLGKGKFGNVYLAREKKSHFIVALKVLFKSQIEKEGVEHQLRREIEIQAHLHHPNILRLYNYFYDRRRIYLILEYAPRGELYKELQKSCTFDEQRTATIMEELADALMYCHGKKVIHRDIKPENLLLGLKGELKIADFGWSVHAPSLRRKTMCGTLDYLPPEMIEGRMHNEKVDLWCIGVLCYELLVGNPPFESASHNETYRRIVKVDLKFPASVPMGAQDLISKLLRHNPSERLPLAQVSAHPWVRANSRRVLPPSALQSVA

COc1cc(Nc2ncc(Cl)c(-c3cccc(CC#N)c3)n2)ccc1N1CCN(C)CC1
> 80%: inhibition [1] | inhibition [2] | inhibition [3] | inhibition [4] | inhibition [5] | inhibition [6] | inhibition [7] | inhibition [8] | inhibition [9] | inhibition [10] | inhibition [11] | inhibition [32] | inhibition [33] | inhibition [34] | inhibition [35] | inhibition [36] | inhibition [37] | inhibition [38] | inhibition [39] | inhibition [42]
0.35 µM: IC50 [43]
> 95%: inhibition [12] | inhibition [13] | inhibition [14] | inhibition [15] | inhibition [16] | inhibition [17] | inhibition [18] | inhibition [19] | inhibition [20]
0.065 µM: IC50 [44]
7.7 ×10⁻⁶ cm/s: Papp B→A [40]
50%: inhibition [23] | inhibition [24] | inhibition [25] | inhibition [26] | inhibition [27] | inhibition [28] | inhibition [29] | inhibition [30] | inhibition [45]
8 ×10⁻⁶ cm/s: Papp A→B [41]
> 50%: inhibition [22] | inhibition [31]
5.4: Ratio IC50 [21]

Source: ChEMBL document CHEMBL2311352, “Discovery of 4-phenyl-2-phenylaminopyridine based TNIK inhibitors” (Bioorg Med Chem Lett, 2013)
